From patent US12534452B2, “N-(1H-imidazol-2-yl)benzamide compound and pharmaceutical composition comprising the same as active ingredient” (KAINOS MEDICINE, INC., priority 2019, dated 2026) come the findings set out here.

In general, IC50 refers to the concentration needed to halve the response being measured.

Some results are limits rather than exact numbers.

Sequence of IRAK4 (Q9NWZ3 whole entry): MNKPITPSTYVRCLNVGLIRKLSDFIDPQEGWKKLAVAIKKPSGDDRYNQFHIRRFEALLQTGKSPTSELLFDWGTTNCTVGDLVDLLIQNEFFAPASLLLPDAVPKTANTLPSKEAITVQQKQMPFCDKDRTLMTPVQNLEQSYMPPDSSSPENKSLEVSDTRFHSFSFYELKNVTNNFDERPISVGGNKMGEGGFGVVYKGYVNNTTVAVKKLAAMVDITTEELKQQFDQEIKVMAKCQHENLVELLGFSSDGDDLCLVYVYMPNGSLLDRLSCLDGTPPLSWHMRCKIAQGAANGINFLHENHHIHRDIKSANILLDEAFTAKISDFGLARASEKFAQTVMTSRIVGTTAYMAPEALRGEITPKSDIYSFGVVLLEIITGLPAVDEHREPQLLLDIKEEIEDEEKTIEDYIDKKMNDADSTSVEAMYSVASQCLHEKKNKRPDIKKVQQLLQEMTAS

The test has as its target IRAK4 (Homo sapiens (Human), UniProt Q9NWZ3). As to the kind of experiment: In vitro IRAK4 phosphorylation activity assay. Format: biochemical. The settings on record: [γ-33P]-ATP, myelin basic protein substrate, 40 minutes at room temperature; categories. Here is the method:
In vitro IRAK4 analysis was performed using N-(1H-imidazol-2-yl)benzamide compounds according to the present invention. All compounds were prepared by dissolving in DMSO. N-(1H-imidazol-2-yl)benzamide compound according to the present invention and other elements for the reaction were added to an assay well. In the standard Kinase Profiler service the preincubation step between the N-(1H-imidazol-2-yl)benzamide compound and kinase was not performed before the reaction.
To the positive control well, all reactants except for the N-(1H-imidazol-2-yl)benzamide compound according to the present invention were added, and DMSO was added to remove the solvent effect. A known control inhibitor having the following structure was added to the blank wells to inhibit kinase activity and establish a base-line.
IRAK4 was incubated with 8 mM MOPS pH 7.0, 0.2 mM EDTA, 0.33 mg/mL myelin basic protein, 10 mM magnesium acetate and [γ-33P]-ATP (specific activity approx. 500 cpm/pmol, concentration as required). The reaction was initiated by the addition of the MgATP mix. After incubation for 40 minutes at room temperature, the reaction was stopped by the addition of 3% phosphoric acid solution. 10 μL of the reaction was then spotted onto a P30 filtermat and washed three times for 5 minutes in 75 mM phosphoric acid and once in methanol prior to drying and scintillation counting.
The results are shown in Table 26 below, where the phosphorylation activity of IC50 values for IRAK4 is shown in categories (A: <50 nM, B: 50-100 nM, C: >100 nM).
Take `COC[C@@H]1CCCN1C(=O)CCCc1cn(-c2ccccc2)c(NC(=O)c2cccc(-c3cn[nH]c3)c2)n1` [Example 55, (S)—N-(4-(4-(2-(methoxymethyl)pyrrolidin-1-yl)-4-oxobutyl)-1-phenyl-1H-imidazol-2-yl)-3-(1H-pyrazol-4-yl)benzamide]: the half-inhibitory concentration (IC50) is under 50 nM.

In turn, `COC[C@H]1CCCN1C(=O)CCCc1cn(-c2ccccc2)c(NC(=O)c2cccc(-c3cn[nH]c3)c2)n1` [Example 56, (R)—N-(4-(4-(2-(methoxymethyl)pyrrolidin-1-yl)-4-oxobutyl)-1-phenyl-1H-imidazol-2-yl)-3-(1H-pyrazol-4-yl)benzamide] displayed an IC50 of under 50 nM.

With `O=C(O)CCCc1cn(-c2ccccc2)c(NC(=O)c2cccc(-c3cn[nH]c3)c2)n1` [Example 57, 4-(2-(3-(1H-pyrazol-4-yl)benzamido)-1-phenyl-1H-imidazol-4-yl)butanoic acid], the IC50 was under 50 nM.

The molecule `COC(=O)CCCc1cn(-c2ccccc2)c(NC(=O)c2cccc(-c3cn[nH]c3)c2)n1` [Example 58, methyl 4-(2-(3-(1H-pyrazol-4-yl)benzamido)-1-phenyl-1H-imidazol-4-yl)butanoate] had an IC50 of under 50 nM.

Molecule `O=C(Nc1nc(CCCC(=O)N2CCCCC2)cn1-c1ccccc1)c1cccc(-c2cn[nH]c2)c1` [Example 59, N-(4-(4-oxo-4-(piperidin-1-yl)butyl)-1-phenyl-1H-imidazol-2-yl)-3-(1H-pyrazol-4-yl)benzamide] gave a concentration for half-maximal inhibition (IC50) of under 50 nM.

As for `CNC(=O)CCCc1cn(-c2ccccc2)c(NC(=O)c2cccc(-c3cn[nH]c3)c2)n1` [Example 60, N-(4-(4-(methylamino)-4-oxobutyl)-1-phenyl-1H-imidazol-2-yl)-3-(1H-pyrazol-4-yl)benzamide], the IC50 was under 50 nM.

The molecule `C[C@@H]1CCCCN1C(=O)CCCc1cn(-c2ccccc2)c(NC(=O)c2cccc(-c3cn[nH]c3)c2)n1` [Example 61, (R)—N-(4-(4-(2-methylpiperidin-1-yl)-4-oxobutyl)-1-phenyl-1H-imidazol-2-yl)-3-(1H-pyrazol-4-yl)benzamide] registered a concentration for half-maximal inhibition (IC50) of under 50 nM.

Turning to `C[C@H]1CCCCN1C(=O)CCCc1cn(-c2ccccc2)c(NC(=O)c2cccc(-c3cn[nH]c3)c2)n1` [Example 62, (S)—N-(4-(4-(2-methylpiperidin-1-yl)-4-oxobutyl)-1-phenyl-1H-imidazol-2-yl)-3-(1H-pyrazol-4-yl)benzamide], the IC50 is under 50 nM.

`C[C@@H]1CCC[C@H](C)N1C(=O)CCCc1cn(-c2ccccc2)c(NC(=O)c2cccc(-c3cn[nH]c3)c2)n1` [Example 63, N-(4-(4-((2R,6S)-2,6-dimethylpiperidin-1-yl)-4-oxobutyl)-1-phenyl-1H-imidazol-2-yl)-3-(1H-pyrazol-4-yl)benzamide]: the IC50 was under 50 nM.

Molecule `O=C(CCCc1cn(-c2ccccc2)c(NC(=O)c2cccc(-c3cn[nH]c3)c2)n1)Nc1ccc(F)cc1` [Example 64, N-(4-(4-((4-fluorophenyl)amino)-4-oxobutyl)-1-phenyl-1H-imidazol-2-yl)-3-(1H-pyrazol-4-yl)benzamide] gave a concentration for half-maximal inhibition (IC50) of under 50 nM.

Regarding `O=C(CCCc1cn(-c2ccccc2)c(NC(=O)c2cccc(-c3cn[nH]c3)c2)n1)Nc1ccccc1F` [Example 65, N-(4-(4-((2-fluorophenyl)amino)-4-oxobutyl)-1-phenyl-1H-imidazol-2-yl)-3-(1H-pyrazol-4-yl)benzamide], the IC50 was under 50 nM.

In turn, `O=C(CCCc1cn(-c2ccccc2)c(NC(=O)c2cccc(-c3cn[nH]c3)c2)n1)Nc1ccc(F)cc1F` [Example 66, N-(4-(4-((2,4-difluorophenyl)amino)-4-oxobutyl)-1-phenyl-1H-imidazol-2-yl)-3-(1H-pyrazol-4-yl)benzamide] gave a 50% inhibitory concentration (IC50) of under 50 nM.

The molecule `C[Si](C)(C)CCOCn1cc(-c2cccc(C(=O)Nc3nc(CCCC(=O)NC4CC4)cn3-c3ccccc3)c2)cn1` [Example 67, N-(4-(4-(cyclopropylamino)-4-oxobutyl)-1-phenyl-1H-imidazol-2-yl)-3-(1-((2-(trimethylsilyl)ethoxy)methyl)-1H-pyrazol-4-yl)benzamide] displayed an IC50 of over 100 nM.

Molecule `O=C(CCCc1cn(-c2ccccc2)c(NC(=O)c2cccc(-c3cn[nH]c3)c2)n1)NC1CC1` [Example 68, N-(4-(4-(cyclopropylamino)-4-oxobutyl)-1-phenyl-1H-imidazol-2-yl)-3-(1H-pyrazol-4-yl)benzamide] gave a concentration for half-maximal inhibition (IC50) of under 50 nM.

As to `O=C(CCCc1cn(-c2ccccc2)c(NC(=O)c2cccc(-c3cn[nH]c3)c2)n1)NC1CCC1` [Example 69, N-(4-(4-(cyclobutylamino)-4-oxobutyl)-1-phenyl-1H-imidazol-2-yl)-3-(1H-pyrazol-4-yl)benzamide], the half-maximal inhibitory concentration (IC50) is under 50 nM.

With `CC(C)OC(=O)CCCc1cn(-c2ccccc2)c(NC(=O)c2cccc(-c3cn[nH]c3)c2)n1` [Example 70, isopropyl 4-(2-(3-(1H-pyrazol-4-yl)benzamido)-1-phenyl-1H-imidazol-4-yl)butanoate], the IC50 was under 50 nM.

With `CN(C(=O)CCCc1cn(-c2ccccc2)c(NC(=O)c2cccc(-c3cn[nH]c3)c2)n1)C1CC1` [Example 71, N-(4-(4-(cyclopropyl(methyl)amino)-4-oxobutyl)-1-phenyl-1H-imidazol-2-yl)-3-(1H-pyrazol-4-yl)benzamide], the IC50 was under 50 nM.

Molecule `CCOC(C)n1cc(-c2cccc(C(=O)Nc3nc(CCCC(=O)NC4CC4)cn3-c3ccccc3)c2)cn1` (centres unmarked) [Example 72, N-(4-(4-(cyclopropylamino)-4-oxobutyl)-1-phenyl-1H-imidazol-2-yl)-3-(1-(1-ethoxyethyl)-1H-pyrazol-4-yl)benzamide] came in with an IC50 of over 100 nM.

With `CCOC(C)(C)n1cc(-c2cccc(C(=O)Nc3nc(CCCC(=O)NC4CC4)cn3-c3ccccc3)c2)cn1` [Example 73, N-(4-(4-(cyclopropylamino)-4-oxobutyl)-1-phenyl-1H-imidazol-2-yl)-3-(1-(2-ethoxypropan-2-yl)-1H-pyrazol-4-yl)benzamide], the half-maximal inhibitory concentration (IC50) lay in the range of 50 to 100 nM.

For `O=C(CCCCc1cn(-c2ccccc2)c(NC(=O)c2cccc(-c3cn[nH]c3)c2)n1)Nc1ccccc1` [Example 76, N-(4-(5-oxo-5-(phenylamino)pentyl)-1-phenyl-1H-imidazol-2-yl)-3-(1H-pyrazol-4-yl)benzamide], the IC50 was under 50 nM.

`COC(=O)CCCCc1cn(-c2ccccc2)c(NC(=O)c2cccc(-c3cn[nH]c3)c2)n1` [Example 77, methyl 5-(2-(3-(1H-pyrazol-4-yl)benzamido)-1-phenyl-1H-imidazol-4-yl)pentanoate]: the concentration for half-maximal inhibition (IC50) is under 50 nM.

As for `O=C(O)CCCCc1cn(-c2ccccc2)c(NC(=O)c2cccc(-c3cn[nH]c3)c2)n1` [Example 78, 5-(2-(3-(1H-pyrazol-4-yl)benzamido)-1-phenyl-1H-imidazol-4-yl)pentanoic acid], the half-maximal inhibitory concentration (IC50) was under 50 nM.

`O=C(Nc1nc(CCCCC(=O)N2CCCCC2)cn1-c1ccccc1)c1cccc(-c2cn[nH]c2)c1` [Example 79, N-(4-(5-oxo-5-(piperidin-1-yl)pentyl)-1-phenyl-1H-imidazol-2-yl)-3-(1H-pyrazol-4-yl)benzamide] displayed an IC50 of under 50 nM.

`CNC(=O)CCCCc1cn(-c2ccccc2)c(NC(=O)c2cccc(-c3cn[nH]c3)c2)n1` [Example 80, N-(4-(5-(methylamino)-5-oxopentyl)-1-phenyl-1H-imidazol-2-yl)-3-(1H-pyrazol-4-yl)benzamide] showed a half-maximal inhibitory concentration (IC50) of under 50 nM.

The molecule `C[C@@H]1CCC[C@H](C)N1C(=O)CCCCc1cn(-c2ccccc2)c(NC(=O)c2cccc(-c3cn[nH]c3)c2)n1` [Example 81, N-(4-(5-((2R,6S)-2,6-dimethylpiperidin-1-yl)-5-oxopentyl)-1-phenyl-1H-imidazol-2-yl)-3-(1H-pyrazol-4-yl)benzamide] registered a 50% inhibitory concentration (IC50) of under 50 nM.

Take `C[C@H]1CCCCN1C(=O)CCCCc1cn(-c2ccccc2)c(NC(=O)c2cccc(-c3cn[nH]c3)c2)n1` [Example 82, (S)—N-(4-(5-(2-methylpiperidin-1-yl)-5-oxopentyl)-1-phenyl-1H-imidazol-2-yl)-3-(1H-pyrazol-4-yl)benzamide]: the half-inhibitory concentration (IC50) was in the range of 50 to 100 nM.

Take `C[C@@H]1CCCCN1C(=O)CCCCc1cn(-c2ccccc2)c(NC(=O)c2cccc(-c3cn[nH]c3)c2)n1` [Example 83, (R)—N-(4-(5-(2-methylpiperidin-1-yl)-5-oxopentyl)-1-phenyl-1H-imidazol-2-yl)-3-(1H-pyrazol-4-yl)benzamide]: the 50% inhibitory concentration (IC50) is under 50 nM.

In turn, `COC[C@@H]1CCCN1NC(=O)CCCCc1cn(-c2ccccc2)c(NC(=O)c2cccc(-c3cn[nH]c3)c2)n1` [Example 84, (S)—N-(4-(5-((2-(methoxymethyl)pyrrolidin-1-yl)amino)-5-oxopentyl)-1-phenyl-1H-imidazol-2-yl)-3-(1H-pyrazol-4-yl)benzamide] had a half-inhibitory concentration (IC50) of under 50 nM.

Take `COC[C@H]1CCCN1NC(=O)CCCCc1cn(-c2ccccc2)c(NC(=O)c2cccc(-c3cn[nH]c3)c2)n1` [Example 85, (R)—N-(4-(5-((2-(methoxymethyl)pyrrolidin-1-yl)amino)-5-oxopentyl)-1-phenyl-1H-imidazol-2-yl)-3-(1H-pyrazol-4-yl)benzamide]: the IC50 is under 50 nM.
